Experimental data reported in patent US12116343B2, “Inhibitors of APOL1 and methods of using same” (Vertex Pharmaceuticals Incorporated, priority 2020, dated 2024).
Where two headings read alike, the source gives them in different places.

Target: T1, APOL1 G1 Protein (Homo sapiens, UniProt O14791, I384M/S342G)
T1 sequence (O14791 28-398 S342G/I384M): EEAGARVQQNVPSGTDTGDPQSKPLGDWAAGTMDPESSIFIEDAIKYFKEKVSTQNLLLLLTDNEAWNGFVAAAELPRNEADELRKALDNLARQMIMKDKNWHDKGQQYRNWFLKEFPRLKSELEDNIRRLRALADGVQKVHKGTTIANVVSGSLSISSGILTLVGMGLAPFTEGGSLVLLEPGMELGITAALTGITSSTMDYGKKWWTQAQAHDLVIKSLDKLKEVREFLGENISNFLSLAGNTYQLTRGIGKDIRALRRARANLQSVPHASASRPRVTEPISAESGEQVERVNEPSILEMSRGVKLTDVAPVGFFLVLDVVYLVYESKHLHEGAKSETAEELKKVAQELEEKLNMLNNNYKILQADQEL
Assay: Trypanosoma brucei brucei lysis assay using APOL1 recombinant protein (AlamarBlue viability)
Type: cell-based
In short: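 Bloodstream-form T. b. brucei Lister 427 VSG 221, 120,000 parasites/well in phenol red-free, FBS-free medium, lysed by recombinant APOL1 G1 with compound (10-point dose response, 0.1% DMSO final). Viability read by AlamarBlue fluorescence against a parasite standard curve.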

[1] = Table 24, Compounds 287 to 465, read-out: Trypanosoma Assay (IC50)
[2] = Trypanosoma brucei brucei lysis, recombinant APOL1, AlamarBlue, read-out: Trypanosoma Assay (IC50)

SMILES	IC50 [2] [µM]	further results
NC(=O)CNCC1CC(c2c(-c3ccc(F)cc3)[nH]c3c(F)cc(F)cc23)C1 (stereo not shown) [Compound 433, 2-(((3-(5,7-difluoro-2-(4-fluorophenyl)-1H-indol-3-yl)cyclobutyl)methyl)amino)acetamide]		IC50 [1]: < 0.25 µM
O=C(NCC1(O)CCCCC1)[C@H]1C[C@H](c2c(-c3ccc(F)cc3)[nH]c3c(F)cc(F)cc32)C1 [Compound 80]	> 1	
O=C([C@H]1C[C@H](c2c(-c3ccc(F)cc3)[nH]c3c(F)cc(F)cc32)C1)N1CCC(O)(CO)CC1 [Compound 87]	> 1	
CN(C(=O)[C@H]1C[C@H](c2c(-c3ccc(F)cc3)[nH]c3c(F)cc(F)cc32)C1)C1(CO)CC1 [Compound 58]	0.25 to 1	
CC1C[C@H](NC(=O)[C@H]2C[C@H](c3c(-c4ccc(F)cc4)[nH]c4c(F)cc(F)cc43)C2)C(=O)N1 (mixture of isomers) [Compound 84]	0.25 to 1	
CCOCC1(CNC(=O)[C@H]2C[C@H](c3c(-c4ccc(F)cc4)[nH]c4c(F)cc(F)cc43)C2)CC1 [Compound 55]	> 1	
O=C([C@H]1C[C@H](c2c(-c3ccc(F)cc3)[nH]c3c(F)cc(F)cc32)C1)N1C[C@@H](CO)OCC12CC2 [Compound 57]	> 1	
O=C(NC(CO)CF)[C@H]1C[C@H](c2c(-c3ccc(F)cc3)[nH]c3c(F)cc(F)cc32)C1 (stereo partly shown) [Compound 78]	< 0.25	
CN(CC1(CO)CC1)C(=O)[C@H]1C[C@H](c2c(-c3ccc(F)cc3)[nH]c3c(F)cc(F)cc32)C1 [Compound 49]	> 1	
O=C(CNC(=O)[C@H]1C[C@H](c2c(-c3ccc(F)cc3)[nH]c3c(F)cc(F)cc32)C1)NC1CC1 [Compound 50]	> 1	
O=C(NC1(CCO)CC1)[C@H]1C[C@H](c2c(-c3ccc(F)cc3)[nH]c3c(F)cc(F)cc32)C1 [Compound 59]	0.25 to 1	
CC(=O)NC1CCCN(C(=O)[C@H]2C[C@H](c3c(-c4ccc(F)cc4)[nH]c4c(F)cc(F)cc43)C2)C1 (stereo partly shown) [Compound 91]	> 1	
O=C(NCC1CC(F)(F)C1)[C@H]1C[C@H](c2c(-c3ccc(F)cc3)[nH]c3c(F)cc(F)cc32)C1 [Compound 41]	> 1	
C[C@@H](NC(=O)[C@H]1C[C@H](c2c(-c3ccc(F)cc3)[nH]c3c(F)cc(F)cc32)C1)C(=O)N(C)C [Compound 61]	> 1	
CN(CC(N)=O)C(=O)[C@H]1C[C@H](c2c(-c3ccc(F)cc3)[nH]c3c(F)cc(F)cc32)C1 [Compound 51]	0.25 to 1	
CC(NC(=O)[C@H]1C[C@H](c2c(-c3ccc(F)cc3)[nH]c3c(F)cc(F)cc32)C1)c1ccn(C)n1 (mixture of isomers) [Compound 75]	< 0.25	
O=C(NC1(CO)CC1)[C@H]1C[C@H](c2c(-c3ccc(F)cc3)[nH]c3c(F)cc(F)cc32)C1 [Compound 47]	< 0.25	

SMILES	IC50 [2] [µM]	further results
CC(NC(=O)[C@H]1C[C@H](c2c(-c3ccc(F)cc3)[nH]c3c(F)cc(F)cc32)C1)c1ccn[nH]1 (mixture of isomers) [Compound 81]	0.25 to 1	
O=C1NCCC1NC(=O)[C@H]1C[C@H](c2c(-c3ccc(F)cc3)[nH]c3c(F)cc(F)cc32)C1 (stereo partly shown) [Compound 2]	< 0.25	
NCC(O)CNC(=O)[C@H]1C[C@H](c2c(-c3ccc(F)cc3)[nH]c3c(F)cc(F)cc32)C1 (stereo partly shown) [Compound 3]	0.25 to 1	
O=C1CC(NC(=O)[C@H]2C[C@H](c3c(-c4ccc(F)cc4)[nH]c4c(F)cc(F)cc43)C2)CN1 (mixture of isomers) [Compound 44]	> 1	
COCC1(CNC(=O)[C@H]2C[C@H](c3c(-c4ccc(F)cc4)[nH]c4c(F)cc(F)cc43)C2)CC1 [Compound 53]	> 1	
NC(=O)CNC[C@H]1C[C@@H](c2c(-c3ccc(F)cc3)[nH]c3c(F)cc(F)cc32)C1 [Compound 447]		IC50 [1]: < 0.25 µM
NC(=O)CC1CC(c2c(-c3ccc(F)cc3)[nH]c3c(F)cc(F)cc23)C1 (stereo not shown) [Compound 455]		IC50 [1]: < 0.25 µM
CC(O)CN(C)C(=O)[C@H]1C[C@H](c2c(-c3ccc(F)cc3)[nH]c3c(F)cc(F)cc32)C1 (stereo partly shown) [Compound 90]	0.25 to 1	
CCNC(=O)[C@@H]1CCCN1C(=O)[C@H]1C[C@H](c2c(-c3ccc(F)cc3)[nH]c3c(F)cc(F)cc32)C1 [Compound 64]	> 1	
CN(CC(C)(C)O)C(=O)[C@H]1C[C@H](c2c(-c3ccc(F)cc3)[nH]c3c(F)cc(F)cc32)C1 [Compound 93]	> 1	
Cc1cc(CNC(=O)[C@H]2C[C@H](c3c(-c4ccc(F)cc4)[nH]c4c(F)cc(F)cc43)C2)nn1C [Compound 73]	0.25 to 1	
COCC1(NC(=O)[C@H]2C[C@H](c3c(-c4ccc(F)cc4)[nH]c4c(F)cc(F)cc43)C2)CC1 [Compound 54]	< 0.25	
O=C([C@H]1C[C@H](c2c(-c3ccc(F)cc3)[nH]c3c(F)cc(F)cc32)C1)N1CCC(O)(O)CC1 [Compound 127]		IC50 (Trypanosoma Assay (IC50), Trypanosoma brucei brucei lysis, recombinant APOL1, AlamarBlue): 0.25 to 1 µM
O=C([C@H]1C[C@H](c2c(-c3ccc(F)cc3)[nH]c3c(F)cc(F)cc32)C1)N1CCCCC1CCO (stereo partly shown) [Compound 94]	> 1	
O=C(NCC1CCOCC1)[C@H]1C[C@H](c2c(-c3ccc(F)cc3)[nH]c3c(F)cc(F)cc32)C1 [Compound 42]	> 1	
C[C@H](O)CNC(=O)[C@H]1C[C@H](c2c(-c3ccc(F)cc3)[nH]c3c(F)cc(F)cc32)C1 [Compound 82]	0.25 to 1	
CN1CCN(C(=O)CNC(=O)[C@H]2C[C@H](c3c(-c4ccc(F)cc4)[nH]c4c(F)cc(F)cc43)C2)CC1 [Compound 67]	> 1	
